Source: ChEMBL document CHEMBL5543080, “5+1-Heterocyclization as preparative approach for carboxy-containing triazolo[1,5-c]quinazolines with anti-inflammatory activity” (2024)

How the values were obtained:
Assay type in all cases: functional
Rattus norvegicus [1] = assay: (§1) Antiinflammatory activity in carrageenan induced Wistar rat model of acute aseptic inflammation assessed as edema paw volume at 25 mg/kg, IG preadministered with compound for 1 hrs followed by carrageenan administration and measured after 3 hrs by water displacement plethysmometer (reference value: 2.23 +/- 0.13 ml); conditions: time 4 hrs
Rattus norvegicus [2] = assay: as §1, with “healthy” for “edema”, “1.38” for “2.23”, “0.06” for “0.13”; conditions: time 4 hrs
Rattus norvegicus [3] = assay: Antiinflammatory activity in Wistar rat model of acute aseptic inflammation assessed as inhibition of carrageenan-induced exudative inflammation at 25 mg/kg, IG preadministered with compound for 1 hrs followed by carrageenan administration and measured after 3 hrs by water displacement plethysmometer relative to control; conditions: po, time 4 hrs
Rattus norvegicus [4] = assay: as §1, with “healthy” for “edema”, “1.20” for “2.23”, “0.06” for “0.13”; conditions: time 4 hrs
Rattus norvegicus [5] = assay: as §1, with “2.48” for “2.23”, “0.09” for “0.13”; conditions: time 4 hrs
Rattus norvegicus [6] = assay: (§2) Antiinflammatory activity in Wistar rat model of acute aseptic inflammation assessed as reduction in paw edema by measuring IL-1beta level at 25 mg/kg, IG preadministered with compound for 1 hrs followed by carrageenan administration and measured after 3 hrs by ELISA (reference value: 3.250 +/- 0.778 pg/ml); conditions: time 4 hrs
Rattus norvegicus [7] = assay: as §2, with “eNOS” for “IL-1beta”, “8.150” for “3.250”, “6.576” for “0.778”; conditions: time 4 hrs
Rattus norvegicus [8] = assay: as §2, with “neutrophils” for “IL-1beta”, “hrs” for “hrs by ELISA”, “4.100” for “3.250”, “0.424 10^3/ml)” for “0.778 pg/ml)”; conditions: time 4 hrs
Rattus norvegicus [9] = assay: as §2, with “COX-2” for “IL-1beta”, “15.00” for “3.250”, “4.243 ng/ml)” for “0.778 pg/ml)”; conditions: time 4 hrs
Rattus norvegicus [10] = assay: as §2, with “C-reactive protein” for “IL-1beta”, “10.64” for “3.250”, “1.223 ng/ml)” for “0.778 pg/ml)”; conditions: time 4 hrs
Rattus norvegicus [11] = assay: as §2, with “nitrotyrosine” for “IL-1beta”, “16.45” for “3.250”, “3.748 nM/ml)” for “0.778 pg/ml)”; conditions: time 4 hrs
Rattus norvegicus [12] = assay: Antiinflammatory activity in Wistar rat model of acute aseptic inflammation assessed as decrease in nitrotyrosine level at 25 mg/kg, IG preadministered with compound for 1 hrs followed by carrageenan administration and measured after 3 hrs by ELISA relative to control; set-up: scale not given: the % may be the effect or the level left; conditions: time 4 hrs
Rattus norvegicus [13] = assay: Antiinflammatory activity in Wistar rat model of acute aseptic inflammation assessed as increase in eNOS level at 25 mg/kg, IG preadministered with compound for 1 hrs followed by carrageenan administration and measured after 3 hrs by ELISA relative to control; conditions: time 4 hrs

SMILES | Activity (Rattus norvegicus [1]) [mL] | Activity (Rattus norvegicus [2]) [mL] | inhibition in vivo at 25 mg/kg (Rattus norvegicus [3]) [%] | Activity (Rattus norvegicus [4]) [mL] | Activity (Rattus norvegicus [5]) [mL] | Activity (Rattus norvegicus [6]) [pg/mL] | Activity (Rattus norvegicus [7]) [pg/mL] | Activity (Rattus norvegicus [8]) | Activity (Rattus norvegicus [9]) [ng/mL] | Activity (Rattus norvegicus [10]) [ng/mL] | Activity (Rattus norvegicus [11]) [nM/ml] | Activity (Rattus norvegicus [12]) [%] | Activity (Rattus norvegicus [13]) [%]
CCOC(=O)C1(C)Nc2ccccc2-c2nc(-c3ccccc3)nn21 (stereo not drawn) | 2.03 | 1.39 | 24.3 |  |  |  |  |  |  |  |  |  | 
O=C(O)CCC12CCC(=O)N1c1ccccc1-c1nc(-c3ccccc3)nn12 (stereo not drawn) | 2.25 | 1.41 | 0.94 |  |  |  |  |  |  |  |  |  | 
CCOC(=O)c1nc2n(n1)C(c1ccc(O)c(C(=O)O)c1)Nc1ccccc1-2 (stereo not drawn) |  |  | 45.8 | 1.34 | 2.03 | 2.633 | 35.23 | 2.133 10^3/ml | 3.7 | 3.183 | 5.6 |  | 
CCOC(=O)c1ccc(-c2nc3n(n2)C(c2cccc(C(=O)O)c2)Nc2ccccc2-3)cc1 (stereo not drawn) |  |  | 31 | 1.36 | 2.24 | 0.613 | 28.03 | 2.4 10^3/ml | 3.8 | 4.233 | 6.433 |  | 
O=C([O-])Cc1ccccc1Nc1c(Cl)cccc1Cl.[Na+] [DICLOFENAC SODIUM] | 1.84 | 1.55 | 69.8 |  |  | 1.27 | 8.43 | 2.52 10^3/ml | 9.785 | 4.245 | 17.6 | 21.42 | 18.07
O=C(O)c1ccc(C2Nc3ccccc3-c3nc(-c4ccccc4)nn32)cc1 (stereo not drawn) |  |  | 16.1 | 1.28 | 2.35 |  |  |  |  |  |  |  | 
O=C1c2ccccc2C2N1c1ccccc1-c1nc(-c3ccccc3)nn12 (stereo not drawn) | 1.99 | 1.25 | 12.5 |  |  |  |  |  |  |  |  |  | 
CCOC(=O)c1ccc(-c2nc3n(n2)C(c2ccc(C(=O)O)c(O)c2)Nc2ccccc2-3)cc1 (stereo not drawn) |  |  | 18.3 | 1.39 | 2.38 |  |  |  |  |  |  |  | 
CCOC(=O)c1nc2n(n1)C1(CCC(=O)O)CCC(=O)N1c1ccccc1-2 (stereo not drawn) | 2.03 | 1.28 | 12.2 |  |  |  |  |  |  |  |  |  | 
CCOC(=O)c1ccc(-c2nc3n(n2)C(c2ccc(C(=O)O)cc2)Nc2ccccc2-3)cc1 (stereo not drawn) |  |  | 21.9 | 1.38 | 2.37 | 0.87 | 14.43 | 2.533 10^3/ml | 4.367 | 5.8 | 11.37 |  | 
CCOC(=O)CC1(C)Nc2ccccc2-c2nc(-c3ccc(OC)cc3)nn21 (stereo not drawn) | 2.12 | 1.33 | 7.27 |  |  |  |  |  |  |  |  |  | 
O=C1CCC2(C(=O)O)N1c1ccccc1-c1nc(-c3ccccc3)nn12 (stereo not drawn) | 2.19 | 1.39 | 6.22 |  |  |  |  |  |  |  |  |  | 
O=C(O)C1Nc2ccccc2-c2nc(-c3ccccc3)nn21 (stereo not drawn) | 2.03 | 1.28 | 12.2 |  |  |  |  |  |  |  |  |  | 
O=C(O)c1cc(C2Nc3ccccc3-c3nc(-c4ccccc4)nn32)ccc1O (stereo not drawn) |  |  | 33.1 | 1.28 | 2.13 | 0.427 | 25.97 | 2.433 10^3/ml | 11.27 | 5.267 | 10.67 | 30.88 | 77.06
CCOC(=O)c1ccc(-c2nc3n(n2)C2(C(=O)O)CCC(=O)N2c2ccccc2-3)cc1 (stereo not drawn) | 2.23 | 1.43 | 5.75 |  |  |  |  |  |  |  |  |  | 
CCOC(=O)c1nc2n(n1)C(c1ccc(C(=O)O)cc1)Nc1ccccc1-2 (stereo not drawn) |  |  | 52.7 | 1.45 | 2.05 | 0.253 | 39.9 | 1.667 10^3/ml | 3.033 | 2.48 | 5.367 |  | 
